Reference: PMC3371050, “Characterisation of a Novel White Laccase from the Deuteromycete Fungus Myrothecium verrucaria NF-05 and Its Decolourisation of Dyes” (PLoS ONE, 2012)
Like-named read-outs stand apart in the source and are kept apart here.

Legend:
Details in all cases: 0.2 M citric acid pH 4.0, 30°C
[1] = system: white laccase from Myrothecium verrucaria NF-05
[2] = system: white laccase from Myrothecium verrucaria NF-05; remark: listed apart in the source
[3] = system: T1, white laccase from Myrothecium verrucaria NF-05; assay: oxidation at […] nm, Lineweaver-Burk; assay type: biochemical, Albifimbria verrucaria
T1 construct: native extracellular enzyme purified from culture medium; about 66 kDa monomer; 3 Cu and 1 Fe per molecule; no bilirubin oxidase activity detected in the fermentation liquid

[4] = system: T1, white laccase from Myrothecium verrucaria NF-05; assay: oxidation at […] nm, Lineweaver-Burk; assay type: biochemical, Albifimbria verrucaria; remark: listed apart in the source

## CCn1c(=NN=c2sc3cc(S(=O)(=O)O)ccc3n2CC)sc2cc(S(=O)(=O)O)ccc21 [ABTS, 2,2′-azinobis-(3-ethylbenzothiazoline-6-sulphonic acid)]
[1]
  Km: 85.9 µM

## Oc1ccc(O)cc1 [hydroquinone]
[2]
  Km: 2.09 mM

## COc1ccccc1O [guaiacol]
[3]
  Km: 312 µM

## Oc1ccccc1O [catechol]
[4]
  Km: 329 µM
